# Columns and labels:
# HA1 adenosine receptor = target: T1, HA1 adenosine receptor (Homo sapiens, UniProt P30542); assay: Human adenosine A1 receptor affinity (Ki hA1); type: binding; conditions: affinity to human adenosine A1 receptor
# T1 sequence (P30542 1-326): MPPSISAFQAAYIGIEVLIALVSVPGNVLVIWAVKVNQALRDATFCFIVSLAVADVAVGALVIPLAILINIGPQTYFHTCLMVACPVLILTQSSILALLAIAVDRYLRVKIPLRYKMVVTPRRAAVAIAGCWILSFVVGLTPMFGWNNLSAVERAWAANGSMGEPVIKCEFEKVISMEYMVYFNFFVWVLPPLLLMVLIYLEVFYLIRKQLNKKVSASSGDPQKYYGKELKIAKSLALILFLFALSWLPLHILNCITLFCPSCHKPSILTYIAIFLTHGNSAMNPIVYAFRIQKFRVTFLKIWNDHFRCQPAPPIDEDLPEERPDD
# [1] = target: T2, human adenosine A2A receptor (Homo sapiens, UniProt P29274); assay: Human adenosine A2A receptor [3H]-SCH-58261 binding assay; conditions: for Ki: affinity to human adenosine A2A receptor, read-out: Ki HA2A; for selectivity (A1/A2a): calculated ratio of the affinity to the HA1 receptor to the HA2a receptor
# T2 construct: expressed in transfected cells; host or cells: CHO cells, Semliki Forest virus expression system; membrane preparation
# T2 sequence (P29274 whole entry): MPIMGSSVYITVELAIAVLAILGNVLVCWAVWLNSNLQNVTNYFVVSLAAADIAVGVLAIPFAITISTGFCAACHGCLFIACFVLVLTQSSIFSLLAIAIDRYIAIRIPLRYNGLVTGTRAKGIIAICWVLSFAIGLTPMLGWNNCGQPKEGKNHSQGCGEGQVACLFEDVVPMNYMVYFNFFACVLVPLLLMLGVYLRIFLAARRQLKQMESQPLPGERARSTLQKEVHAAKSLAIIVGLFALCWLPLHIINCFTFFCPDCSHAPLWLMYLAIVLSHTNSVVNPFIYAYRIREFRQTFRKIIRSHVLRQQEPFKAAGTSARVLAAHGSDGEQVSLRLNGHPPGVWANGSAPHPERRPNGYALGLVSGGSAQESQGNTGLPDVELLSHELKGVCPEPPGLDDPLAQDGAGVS
SMILES,Ki (HA1 adenosine receptor) [nM],Ki [1] [nM],selectivity (A1/A2a) [1]
"Cc1ccc(-c2nc3cc(C(=O)NC4CCc5ccccc54)cc(N)n3n2)s1 (stereo not drawn) [Example 203, 5-Amino-2-(5-methyl-thiophen-2-yl)-[1,2,4]triazolo[1,5-a]pyridine-7-carboxylic acid indan-1-ylamide]",66.2,60,1.1
"CN(Cc1ccccc1)C(=O)c1cc(N)n2nc(-c3nccs3)nc2c1 [Example 204, 5-Amino-2-thiazol-2-yl-[1,2,4]triazolo[1,5-a]pyridine-7-carboxylic acid benzyl-methyl-amide]",325,41.7,7.8
"Nc1cc(C(=O)NCc2ccc(Cl)cc2)cc2nc(-c3nccs3)nn12 [Example 205, 5-Amino-2-thiazol-2-yl-[1,2,4]triazolo[1,5-a]pyridine-7-carboxylic acid 4-chloro-benzylamide]",294,157,1.9
"Nc1cc(C(=O)NCc2ccc(F)cc2)cc2nc(-c3nccs3)nn12 [Example 206, 5-Amino-2-thiazol-2-yl-[1,2,4]triazolo[1,5-a]pyridine-7-carboxylic acid 4-fluoro-benzylamide]",657,126,5.2
"COc1ccc(CNC(=O)c2cc(N)n3nc(-c4nccs4)nc3c2)cc1 [Example 207, 5-Amino-2-thiazol-2-yl-[1,2,4]triazolo[1,5-a]pyridine-7-carboxylic acid 4-methoxy-benzylamide]",533,187,2.8
"COc1ccc(CNC(=O)c2cc(N)n3nc(-c4nccs4)nc3c2)cc1OC [Example 208, 5-Amino-2-thiazol-2-yl-[1,2,4]triazolo[1,5-a]pyridine-7-carboxylic acid 3,4-dimethoxy-benzylamide]",1860,316,5.9
"Cc1ccc(-c2nc3cc(C(=O)NCc4ccccc4)cc(N)n3n2)o1 [Example 210, 5-Amino-2-(5-methyl-furan-2-yl)-[1,2,4]triazolo[1,5-a]pyridine-7-carboxylic acid benzylamide]",299,48.6,6.1
"Cc1ccc(-c2nc3cc(C(=O)NC(C)c4ccccc4)cc(N)n3n2)o1 (stereo not drawn) [Example 211, 5-Amino-2-(5-methyl-furan-2-yl)-[1,2,4]triazolo[1,5-a]pyridine-7-carboxylic acid (1-phenyl-ethyl)-amide]",298,57.3,5.2
"Cc1ccc(-c2nc3cc(C(=O)NCc4ccc(Cl)cc4)cc(N)n3n2)o1 [Example 212, 5-Amino-2-(5-methyl-furan-2-yl)-[1,2,4]triazolo[1,5-a]pyridine-7-carboxylic acid 4-chloro-benzylamide]",634,190,3.3
"Cc1ccc(-c2nc3cc(C(=O)NCc4ccc(F)cc4)cc(N)n3n2)o1 [Example 213, 5-Amino-2-(5-methyl-furan-2-yl)-[1,2,4]triazolo[1,5-a]pyridine-7-carboxylic acid 4-fluoro-benzylamide]",343,73.2,4.7
"COc1ccccc1CNC(=O)c1cc(N)n2nc(-c3ccc(C)o3)nc2c1 [Example 214, 5-Amino-2-(5-methyl-furan-2-yl)-[1,2,4]triazolo[1,5-a]pyridine-7-carboxylic acid 2-methoxy-benzylamide]",111,14.6,7.6
"COc1ccc(CNC(=O)c2cc(N)n3nc(-c4ccc(C)o4)nc3c2)cc1 [Example 215, 5-Amino-2-(5-methyl-furan-2-yl)-[1,2,4]triazolo[1,5-a]pyridine-7-carboxylic acid 4-methoxy-benzylamide]",1540,295,5.2
"Nc1cc(C(=O)NCc2ccccc2)cc2nc(-c3ccccc3)nn12 [Example 216, 5-Amino-2-phenyl-[1,2,4]triazolo[1,5-a]pyridine-7-carboxylic acid benzylamide]",149,64.1,2.3

# More lines, now with the values ahead:
Ki (HA1 adenosine receptor) [nM],Ki [1] [nM],selectivity (A1/A2a) [1],SMILES
72.6,84.6,0.9,"CC(NC(=O)c1cc(N)n2nc(-c3ccccc3)nc2c1)c1ccccc1 (stereo not drawn) [Example 217, 5-Amino-2-phenyl-[1,2,4]triazolo[1,5-a]pyridine-7-carboxylic acid (1-phenyl-ethyl)-amide]"
116,47.2,2.5,"Nc1cc(C(=O)NCc2ccccc2Cl)cc2nc(-c3ccccc3)nn12 [Example 218, 5-Amino-2-phenyl-[1,2,4]triazolo[1,5-a]pyridine-7-carboxylic acid 2-chloro-benzylamide]"
133,30,4.4,"Nc1cc(C(=O)NCc2ccccc2Br)cc2nc(-c3ccccc3)nn12 [Example 219, 5-Amino-2-phenyl-[1,2,4]triazolo[1,5-a]pyridine-7-carboxylic acid 2-bromo-benzylamide]"
48.3,29.2,1.7,"COc1ccccc1CNC(=O)c1cc(N)n2nc(-c3ccccc3)nc2c1 [Example 220, 5-Amino-2-phenyl-[1,2,4]triazolo[1,5-a]pyridine-7-carboxylic acid 2-methoxy-benzylamide]"
2260,308,7.3,"CCN(C(=O)c1cc(N)n2nc(-c3ccoc3)nc2c1)C(C)C [Example 221, 5-Amino-2-furan-3-yl-[1,2,4]triazolo[1,5-a]pyridine-7-carboxylic acid ethyl-isopropyl-amide]"
2050,241,8.5,"CN(C(=O)c1cc(N)n2nc(-c3ccoc3)nc2c1)C1CCCCC1 [Example 222, 5-Amino-2-furan-3-yl-[1,2,4]triazolo[1,5-a]pyridine-7-carboxylic acid cyclohexyl-methyl-amide]"
414,44.1,9.4,"Nc1cc(C(=O)NC2CCc3ccccc32)cc2nc(-c3ccoc3)nn12 (stereo not drawn) [Example 223, 5-Amino-2-furan-3-yl-[1,2,4]triazolo[1,5-a]pyridine-7-carboxylic acid indan-1-ylamide]"
216,47.4,4.5,"Nc1cc(C(=O)NCc2ccccc2)cc2nc(-c3ccoc3)nn12 [Example 224, 5-Amino-2-furan-3-yl-[1,2,4]triazolo[1,5-a]pyridine-7-carboxylic acid benzylamide]"
125,103,1.2,"CC(NC(=O)c1cc(N)n2nc(-c3ccoc3)nc2c1)c1ccccc1 (stereo not drawn) [Example 225, 5-Amino-2-furan-3-yl-[1,2,4]triazolo[1,5-a]pyridine-7-carboxylic acid (1-phenyl-ethyl)-amide]"
1010,121,8.4,"CN(Cc1ccccc1)C(=O)c1cc(N)n2nc(-c3ccoc3)nc2c1 [Example 226, 5-Amino-2-furan-3-yl-[1,2,4]triazolo[1,5-a]pyridine-7-carboxylic acid benzyl-methyl-amide]"
736,192,3.8,"Nc1cc(C(=O)NCc2ccc(F)cc2)cc2nc(-c3ccoc3)nn12 [Example 227, 5-Amino-2-furan-3-yl-[1,2,4]triazolo[1,5-a]pyridine-7-carboxylic acid 4-fluoro-benzylamide]"
164,30.5,5.4,"COc1ccccc1CNC(=O)c1cc(N)n2nc(-c3ccoc3)nc2c1 [Example 228, 5-Amino-2-furan-3-yl-[1,2,4]triazolo[1,5-a]pyridine-7-carboxylic acid 2-methoxy-benzylamide]"
280,7.2,38.7,"CCN(CC)C(=O)c1cc(N)n2nc(-c3ccc(Cl)o3)nc2c1 [Example 233, 5-Amino-2-(5-chloro-furan-2-yl)-[1,2,4]triazolo[1,5-a]pyridine-7-carboxylic acid diethylamide]"
455,69.5,6.6,"Nc1cc(C(=O)NC2CCCCC2)cc2nc(-c3ccc(Cl)o3)nn12 [Example 234, 5-Amino-2-(5-chloro-furan-2-yl)-[1,2,4]triazolo[1,5-a]pyridine-7-carboxylic acid cyclohexylamide]"
770,18.1,42.5,"Nc1cc(C(=O)N2CCCC2)cc2nc(-c3ccc(Cl)o3)nn12 [Example 235, [5-Amino-2-(5-chloro-furan-2-yl)-[1,2,4]triazolo[1,5-a]pyridin-7-yl]-pyrrolidin-1-yl-methanone]"
325,9.2,35.2,"Nc1cc(C(=O)N2CCCCC2)cc2nc(-c3ccc(Cl)o3)nn12 [Example 236, [5-Amino-2-(5-chloro-furan-2-yl)-[1,2,4]triazolo[1,5-a]pyridin-7-yl]-piperidin-1-yl-methanone]"
708,52.3,13.5,"Nc1cc(C(=O)N2CCOCC2)cc2nc(-c3ccc(Cl)o3)nn12 [Example 237, [5-Amino-2-(5-chloro-furan-2-yl)-[1,2,4]triazolo[1,5-a]pyridin-7-yl]-morpholin-4-yl-methanone]"
